Patent US6048862A, “Benzylamidine derivatives with serotonin receptor binding activity” (Virginia Commonwealth University, priority 1999, dated 2000)
Counter-ions that a name gives are not always drawn. Like-named read-outs stand apart in the source and are kept apart here.

How the values were obtained:
5-HT1Dβ = 5-HT1Dβ (Homo sapiens, UniProt P28222); test: Binding affinity, 3H-serotonin displacement, membranes of recombinant cells expressing 5-HT1Dβ
Protocol: (§1) Compounds of the previous examples, as well as reference compounds were evaluated for binding affinity using cell types receptive specifically to 5-HT1Dα and 5-HT1Dβ ligands. The assay protocol generally entailed the incubation of membranes prepared from cells expressing the 5-HT1Dα or 5-HT1Dβ subtype of 5-HT receptors with ^3 H-serotonin. Increasing concentrations of the test compound were incubated with the radioligand and the membrane homogenates prepared from the recombinant cells. After a 60 minute incubation at 22° C., the incubation was terminated by vacuum filtration. The filters were washed with buffer and counted for radioactivity using liquid scintillation spectroscopy. The affinity of the test compound for the 5-HT1Dα or 5-HT1Dβ receptor was determined by computer-assisted analysis of the data and by determining the amount of compound necessary to inhibit 50% of the binding of the radioligand to the receptor. Concentrations ranging from 10^-11 M to 10^- 5 M of the test compound were evaluated.

5-HT1Dα = 5-HT1Dα (Homo sapiens, UniProt P28221); test: biochemical; format: binding; details: for 5-HT1Dβ / 5-HT1Dα: ratio of Ki values, selectivity for 5-HT1Dα over 5-HT1Dβ
Protocol: as §1

5-HT1D receptor = biological target: T1, 5-HT1D receptor (Oryctolagus cuniculus, UniProt P49144); test: 5-HT1D receptor agonist assay: contraction of isolated rabbit saphenous vein; format: cell-based
T1 construct: Ring segments of the vein (4-5 mm in length) were cut and the endothelium gently removed; from tissue; host or cells: saphenous vein rings, endothelium removed, male New Zealand White rabbit
Protocol: The saphenous veins from both the left and right side were cleaned of fat and connective tissue and placed in Krebs solution (118 mM NaCl, 11 mM glucose, 25 mM NaHCO3, 4.7 mM KCl, 2.5 mM CaCl2. 2H2 O, 1.2 mM KH2 PO4, and 1.2 mM MgSO4. 7H2 O. Ring segments of the vein (4-5 mm in length) were cut and the endothelium gently removed. The segments were mounted in 10 mL baths containing Krebs buffer and were constantly aerated with 95% oxygen/5% carbon dioxide and maintained at 37° C. and pH 7.4 in order to record the isometric tension. A resting tension of 2.5 g was applied and the tissues allowed to equilibrate for 90 minutes, with washing every 15-20 minutes. After the equilibrium period, the rings were depolarized by the addition of two aliquots of KCl (80 mM final concentration) separated by a 20 minute washing period. The tissues were then exposed to prazosin, idazoxan and indomethacin (all 1 μM final concentration) for 30 minutes in order to exclude the actions of α1 - and α2 -adrenergic receptors and prostaglandin receptors respectively. […] Responses were calculated as a percentage of the maximal contraction evoked by 80 mM KCl. Only one compound was tested per preparation.
EC50 represents the concentration of the compound which causes 50% of the maximum contraction effected by it. If the compound included a maximum contraction of less than 60% of that of KCl (80 mM), it was considered a partial agonist.

[1] = 3H-serotonin radioligand, 60 minute incubation at 22° C., read-out: 5-HT1Dβ Kl
[2] = 3H-serotonin radioligand, 60 minute incubation at 22° C., read-out: 5-HT1Dα Kl
[3] = rabbit isolated saphenous vein, prazosin, idazoxan and indomethacin (1 μM) present, 50% of the compound's own maximum contraction, 37° C., pH 7.4, read-out: EC50

T1 sequence (P49144 whole entry): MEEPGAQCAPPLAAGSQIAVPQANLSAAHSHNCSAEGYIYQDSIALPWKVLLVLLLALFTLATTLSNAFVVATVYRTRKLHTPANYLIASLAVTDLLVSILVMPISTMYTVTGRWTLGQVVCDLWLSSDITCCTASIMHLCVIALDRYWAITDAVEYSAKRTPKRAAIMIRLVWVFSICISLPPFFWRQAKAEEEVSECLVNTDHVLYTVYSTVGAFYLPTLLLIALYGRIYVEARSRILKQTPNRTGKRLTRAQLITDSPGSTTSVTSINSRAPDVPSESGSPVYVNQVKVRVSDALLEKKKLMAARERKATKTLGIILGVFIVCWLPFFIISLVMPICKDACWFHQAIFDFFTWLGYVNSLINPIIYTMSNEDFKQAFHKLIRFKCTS
Sequence of 5-HT1Dβ (P28222 whole entry): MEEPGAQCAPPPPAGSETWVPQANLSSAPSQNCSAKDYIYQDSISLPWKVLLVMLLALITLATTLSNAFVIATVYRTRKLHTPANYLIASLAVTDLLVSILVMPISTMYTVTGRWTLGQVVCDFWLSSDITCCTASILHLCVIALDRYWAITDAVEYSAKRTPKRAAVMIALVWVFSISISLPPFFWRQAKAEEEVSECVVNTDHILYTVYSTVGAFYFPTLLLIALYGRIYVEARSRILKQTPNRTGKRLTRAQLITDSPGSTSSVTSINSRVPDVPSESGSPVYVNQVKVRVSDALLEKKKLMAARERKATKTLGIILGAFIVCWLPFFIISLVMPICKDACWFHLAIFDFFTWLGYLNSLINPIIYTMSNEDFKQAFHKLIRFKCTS
Sequence of 5-HT1Dα (P28221 whole entry): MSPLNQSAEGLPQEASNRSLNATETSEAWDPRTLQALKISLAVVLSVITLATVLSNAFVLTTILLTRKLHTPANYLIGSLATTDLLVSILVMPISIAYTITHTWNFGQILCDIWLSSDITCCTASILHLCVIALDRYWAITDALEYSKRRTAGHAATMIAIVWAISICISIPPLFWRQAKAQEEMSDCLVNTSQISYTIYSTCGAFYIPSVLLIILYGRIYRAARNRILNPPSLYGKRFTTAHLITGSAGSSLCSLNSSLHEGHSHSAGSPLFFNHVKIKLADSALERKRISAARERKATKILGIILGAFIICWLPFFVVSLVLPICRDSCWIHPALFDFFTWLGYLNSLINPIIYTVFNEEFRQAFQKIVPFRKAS

Question: Cc1cc(C)c(CC2=NCCN2)c(C)c1.Cl [Example 5e, 4,5-Dihydro-2-[(2,4,6-trimethylphenyl)methyl]-1H-imidazole hydrochloride] was tested. Which Ki (5-HT1Dβ; [1]) did it give?
Answer: 3480 nM

Question: And the Ki (5-HT1Dα)?
Answer: 92 nM

Question: What about the “5-HT1Dβ / 5-HT1Dα” value (5-HT1Dα) of the same compound?
Answer: 20

Question: Which results are given for CC(C)(C)c1ccc(CC2=NCCN2)cc1 [Example 5b, 2-[(4-t-Butyphenyl)methyl]-4,5-dihydro-1H-imidazole hydrochloride]?
Answer: Ki (5-HT1Dβ; [1]): > 10000 nM; Ki (5-HT1Dα; [2]): 105 nM; 5-HT1Dβ / 5-HT1Dα (5-HT1Dα): > 95

Question: What does the source list for Cc1cc(Br)cc(C)c1CC1=NCCN1.Cl [Example 5d, 2-[(4-Bromo-2,6-dimethylphenyl)methyl]-4,5-dihydro-1H-imidazole hydrochloride]?
Answer: Ki (5-HT1Dβ; [1]): 1570 nM; Ki (5-HT1Dα; [2]): 74 nM; 5-HT1Dβ / 5-HT1Dα (5-HT1Dα): 21

Question: With Cc1cc(C(C)(C)C)cc(C)c1CC1=NCCN1 [Example 5c, 2-[(4-t-Butyl-2,6-dimethylphenyl)methyl]-4,5-dihydro-1H-imidazole hydrochloride] as the compound, how does the Ki (5-HT1Dβ) read?
Answer: 14.9 nM

Question: Which results are given for Cl.c1ccc2cc(CC3=NCCN3)ccc2c1 [Example 5g, 4,5-Dihydro-2-(2-naphthalenylmethyl)-1H-imidazole hydrochloride]?
Answer: Ki (5-HT1Dβ): 1160 nM; Ki (5-HT1Dα): 135 nM; 5-HT1Dβ / 5-HT1Dα (5-HT1Dα): 9

Question: How did the Ki (5-HT1Dβ; [1]) turn out when Cc1cc(C(C)C)cc(C)c1CC1=NCCN1.Cl [Example 5f, 4,5-Dihydro-2-[(2,6-dimethyl-4-isopropylphenyl)methyl]-1H-imidazole hydrochloride] was run?
Answer: 37 nM

Question: And the Ki (5-HT1Dα)?
Answer: 1.6 nM

Question: And the “5-HT1Dβ / 5-HT1Dα” value (5-HT1Dα)?
Answer: 23

Question: With Cc1cc(C(C)(C)C)c(O)c(C)c1CC1=NCCN1 [oxymetazoline, reference compound] as the compound, how does the Ki (5-HT1Dβ; [1]) read?
Answer: 0.33 nM

Question: How did the Ki (5-HT1Dβ; [1]) turn out when Cc1cc(C(C)(C)C)cc(C)c1CC1=NCCN1Cc1ccccc1.Cl [Example 5i, 2-[(4-t-Butyl-2,6-dimethylphenyl)methyl]-1-benzyl-4,5-dihydroimidazole hydrochloride] was run?
Answer: 1860 nM

Question: What about the Ki (5-HT1Dα; [2]) of the same compound?
Answer: 30 nM

Question: What about the “5-HT1Dβ / 5-HT1Dα” value (5-HT1Dα) of the same compound?
Answer: 62

Question: With CC(C)(C)c1ccc(CC2=NCCN2)cc1 [drawing 22] as the compound, how does the EC50 (5-HT1D receptor; [3]) read?
Answer: 2900 nM

Question: With CC(C)c1ccc(CC2=NCCN2)cc1.Cl [Example 5a, 4,5-Dihydro-2-[(4-isopropylphenyl)methyl]-1H-imidazole Hydrochloride] as the compound, how does the Ki (5-HT1Dβ; [1]) read?
Answer: 2780 nM

Question: And the Ki (5-HT1Dα; [2])?
Answer: 340 nM

Question: What about the “5-HT1Dβ / 5-HT1Dα” value (5-HT1Dα) of the same compound?
Answer: 8

Question: Cc1cc(C)c(CC2=NCCN2)c(C)c1 [drawing 23] was tested. Which EC50 (5-HT1D receptor) did it give?
Answer: 100 nM

Question: Which EC50 (5-HT1D receptor; [3]) does the source give for Cc1cc(C(C)(C)C)cc(C)c1CC(=N)N [drawing 24] here?
Answer: 23 nM

Question: Which Ki (5-HT1Dβ; [1]) does the source give for Cc1cc(C(C)(C)C)cc(C)c1CC(=N)N [Example 6, 4-t-Butyl-2,6-dimethylbenzeneethanimidamide] here?
Answer: 600 nM

Question: And the Ki (5-HT1Dα; [2])?
Answer: 13 nM

Question: And the “5-HT1Dβ / 5-HT1Dα” value (5-HT1Dα)?
Answer: 46

Question: For Cc1cc(C(C)(C)C)cc(C)c1CC1=NCCCN1.Cl [Example 5j, 2-(4-t-Butyl-2,6-dimethylbenzyl)-1,4,5,6-tetrahydropyrimidine hydrochloride], which Ki (5-HT1Dβ; [1]) is on record?
Answer: > 5000 nM

Question: What about the Ki (5-HT1Dα; [2]) of the same compound?
Answer: 35 nM

Question: And the “5-HT1Dβ / 5-HT1Dα” value (5-HT1Dα)?
Answer: > 143

Question: What does the source list for Cc1cc(C(C)(C)C)ccc1CC1=NCCN1.Cl [Example 5k, 2-[(4-t-Butyl-2-methylphenyl)methyl]-4,5-dihydro-1H-imidazole hydrochloride]?
Answer: Ki (5-HT1Dβ; [1]): 712 nM; Ki (5-HT1Dα; [2]): 6.8 nM; 5-HT1Dβ / 5-HT1Dα (5-HT1Dα): 105
